From ChEMBL document CHEMBL2346657, “Synthesis of novel 2-amino-4-(5'-substituted 2'-phenyl-1H-indol-3'-yl)-6-aryl-4H-pyran-3-carbonitrile derivatives as antimicrobial and antioxidant agents” (2013)
Active and inactive are the calls of the source. How the calls were made is not given here.

Key:
Assay type in all cases: functional
Aspergillus flavus [1] = test: Antimicrobial activity against Aspergillus flavus MTCC 1973 at 500 ug/ml after 72 hrs by cup plate method; settings: MTCC 1973, 72 h, read-out: IZ
Klebsiella pneumoniae [2] = test: Antimicrobial activity against Klebsiella pneumoniae NCTC 13368 at 500 ug/ml after 24 hrs by cup plate method; settings: NCTC 13368, 24 h, read-out: IZ
Escherichia coli [3] = test: Antimicrobial activity against Escherichia coli MTCC 723 at 1000 ug/ml after 24 hrs by cup plate method; settings: MTCC 723, 24 h, read-out: IZ
Staphylococcus aureus [4] = test: Antimicrobial activity against Staphylococcus aureus ATCC 29513 at 500 ug/ml after 24 hrs by cup plate method; settings: ATCC 29513, 24 h, read-out: IZ
Aspergillus oryzae [5] = test: Antimicrobial activity against Aspergillus oryzae MTCC 3567 at 750 ug/ml after 72 hrs by cup plate method; settings: MTCC 3567, 72 h, read-out: IZ
Aspergillus niger [6] = test: Antimicrobial activity against Aspergillus niger MTCC 281 at 1000 ug/ml after 72 hrs by cup plate method; settings: MTCC 281, 72 h, read-out: IZ
Escherichia coli [7] = test: Antimicrobial activity against Escherichia coli MTCC 723 at 750 ug/ml after 24 hrs by cup plate method; settings: MTCC 723, 24 h, read-out: IZ
Staphylococcus aureus [8] = test: Antimicrobial activity against Staphylococcus aureus ATCC 29513 at 1000 ug/ml after 24 hrs by cup plate method; settings: ATCC 29513, 24 h, read-out: IZ
Aspergillus niger [9] = test: Antimicrobial activity against Aspergillus niger MTCC 281 at 500 ug/ml after 72 hrs by cup plate method; settings: MTCC 281, 72 h, read-out: IZ
Klebsiella pneumoniae [10] = test: Antimicrobial activity against Klebsiella pneumoniae NCTC 13368 at 1000 ug/ml after 24 hrs by cup plate method; settings: NCTC 13368, 24 h, read-out: IZ
Aspergillus oryzae [11] = test: Antimicrobial activity against Aspergillus oryzae MTCC 3567 at 500 ug/ml after 72 hrs by cup plate method; settings: MTCC 3567, 72 h, read-out: IZ
Klebsiella pneumoniae [12] = test: Antimicrobial activity against Klebsiella pneumoniae NCTC 13368 at 750 ug/ml after 24 hrs by cup plate method; settings: NCTC 13368, 24 h, read-out: IZ
Aspergillus terreus [13] = test: Antimicrobial activity against Aspergillus terreus MTCC 1782 at 1000 ug/ml after 72 hrs by cup plate method; settings: MTCC 1782, 72 h, read-out: IZ
Aspergillus flavus [14] = test: Antimicrobial activity against Aspergillus flavus MTCC 1973 at 750 ug/ml after 72 hrs by cup plate method; settings: MTCC 1973, 72 h, read-out: IZ
Aspergillus flavus [15] = test: Antimicrobial activity against Aspergillus flavus MTCC 1973 at 1000 ug/ml after 72 hrs by cup plate method; settings: MTCC 1973, 72 h, read-out: IZ
Pseudomonas aeruginosa [16] = test: Antimicrobial activity against Pseudomonas aeruginosa MTCC 1688 at 1000 ug/ml after 24 hrs by cup plate method; settings: MTCC 1688, 24 h, read-out: IZ
Pseudomonas aeruginosa [17] = test: Antimicrobial activity against Pseudomonas aeruginosa MTCC 1688 at 750 ug/ml after 24 hrs by cup plate method; settings: MTCC 1688, 24 h, read-out: IZ
Aspergillus niger [18] = test: Antimicrobial activity against Aspergillus niger MTCC 281 at 750 ug/ml after 72 hrs by cup plate method; settings: MTCC 281, 72 h, read-out: IZ
Escherichia coli [19] = test: Antimicrobial activity against Escherichia coli MTCC 723 at 500 ug/ml after 24 hrs by cup plate method; settings: MTCC 723, 24 h, read-out: IZ
Pseudomonas aeruginosa [20] = test: Antimicrobial activity against Pseudomonas aeruginosa MTCC 1688 at 500 ug/ml after 24 hrs by cup plate method; settings: MTCC 1688, 24 h, read-out: IZ
Aspergillus terreus [21] = test: Antimicrobial activity against Aspergillus terreus MTCC 1782 at 500 ug/ml after 72 hrs by cup plate method; settings: MTCC 1782, 72 h, read-out: IZ
Aspergillus terreus [22] = test: Antimicrobial activity against Aspergillus terreus MTCC 1782 at 750 ug/ml after 72 hrs by cup plate method; settings: MTCC 1782, 72 h, read-out: IZ
Staphylococcus aureus [23] = test: Antimicrobial activity against Staphylococcus aureus ATCC 29513 at 750 ug/ml after 24 hrs by cup plate method; settings: ATCC 29513, 24 h, read-out: IZ
[24] = Antioxidant activity assessed as metal chelating activity by measuring inhibition of ferrozine-Fe2+ complex formation at 25 to 100 ug/ml
Aspergillus oryzae [25] = test: Antimicrobial activity against Aspergillus oryzae MTCC 3567 at 1000 ug/ml after 72 hrs by cup plate method; settings: MTCC 3567, 72 h, read-out: IZ

Row | SMILES | zone of inhibition at 500 µg/mL (Klebsiella pneumoniae [2]) | zone of inhibition at 1000 µg/mL (Escherichia coli [3]) | zone of inhibition at 500 µg/mL (Staphylococcus aureus [4]) | zone of inhibition at 750 µg/mL (Aspergillus oryzae [5]) | zone of inhibition at 1000 µg/mL (Aspergillus niger [6]) | zone of inhibition at 750 µg/mL (Escherichia coli [7]) | zone of inhibition at 1000 µg/mL (Staphylococcus aureus [8]) | zone of inhibition at 500 µg/mL (Aspergillus niger [9]) | zone of inhibition at 1000 µg/mL (Klebsiella pneumoniae [10]) | zone of inhibition at 500 µg/mL (Aspergillus oryzae [11]) | zone of inhibition at 750 µg/mL (Klebsiella pneumoniae [12]) | zone of inhibition at 1000 µg/mL (Aspergillus terreus [13]) | zone of inhibition at 1000 µg/mL (Pseudomonas aeruginosa [16]) | zone of inhibition at 750 µg/mL (Pseudomonas aeruginosa [17]) | zone of inhibition at 750 µg/mL (Aspergillus niger [18]) | zone of inhibition at 500 µg/mL (Escherichia coli [19]) | zone of inhibition at 500 µg/mL (Pseudomonas aeruginosa [20]) | zone of inhibition at 500 µg/mL (Aspergillus terreus [21]) | zone of inhibition at 750 µg/mL (Aspergillus terreus [22]) | zone of inhibition at 750 µg/mL (Staphylococcus aureus [23]) | other results
1 | Cc1ccc(C2=CC(c3c(-c4ccccc4)[nH]c4ccccc34)c3c(nc4oc(=O)c(C#N)c(N)c4c3N)O2)cc1 (centres undefined) | 12 mm | 8 mm | 8 mm | 6 mm | 8 mm | 8 mm | 3 mm | 2 mm | 10 mm | 6 mm | 11 mm | 3 mm | 9 mm | 5 mm | 2 mm | 9 mm | 5 mm | 10 mm | 5 mm | 5 mm | zone of inhibition at 500 µg/mL (Aspergillus flavus [1]): 0 mm; zone of inhibition at 750 µg/mL (Aspergillus flavus [14]): 0 mm; zone of inhibition at 1000 µg/mL (Aspergillus flavus [15]): 0 mm; Activity [24]: Active; zone of inhibition at 1000 µg/mL (Aspergillus oryzae [25]): 6 mm
2 | Cc1ccc2[nH]c(-c3ccccc3)c(C3C=C(c4ccccc4)Oc4nc5oc(=O)c(C#N)c(N)c5c(N)c43)c2c1 (centres undefined) | 4 mm | 5 mm | 9 mm | 8 mm | 10 mm | 9 mm | 4 mm | 10 mm | 4 mm | 11 mm | 4 mm | 4 mm | 0 mm | 3 mm | 10 mm | 10 mm | 3 mm | 9 mm | 4 mm | 8 mm | zone of inhibition at 500 µg/mL (Aspergillus flavus [1]): 5 mm; zone of inhibition at 750 µg/mL (Aspergillus flavus [14]): 0 mm; Activity [24]: Active; zone of inhibition at 1000 µg/mL (Aspergillus oryzae [25]): 8 mm
3 | CN[C@@H]1[C@H](O[C@H]2[C@H](O[C@H]3[C@H](O)[C@@H](O)[C@H](N=C(N)N)[C@@H](O)[C@@H]3N=C(N)N)O[C@@H](C)[C@]2(O)C=O)O[C@@H](CO)[C@H](O)[C@H]1O [STREPTOMYCIN] | 14 mm | 15 mm | 15 mm |  |  | 14 mm | 15 mm |  | 14 mm |  | 14 mm |  | 14 mm | 13 mm |  | 14 mm | 13 mm |  |  | 15 mm | 
4 | N#Cc1c(N)c2c(N)c3c(nc2oc1=O)OC(c1ccccc1)=CC3c1c(-c2ccccc2)[nH]c2ccccc12 (centres undefined) | 11 mm | 10 mm | 10 mm | 11 mm | 10 mm | 8 mm | 9 mm | 5 mm | 10 mm | 11 mm | 11 mm | 5 mm | 3 mm | 7 mm | 3 mm | 8 mm | 5 mm | 5 mm | 5 mm | 10 mm | zone of inhibition at 500 µg/mL (Aspergillus flavus [1]): 5 mm; zone of inhibition at 750 µg/mL (Aspergillus flavus [14]): 3 mm; Activity [24]: Active; zone of inhibition at 1000 µg/mL (Aspergillus oryzae [25]): 11 mm
5 | OC(Cn1cncn1)(Cn1cncn1)c1ccc(F)cc1F [FLUCONAZOLE] |  |  |  | 14 mm | 14 mm |  |  | 13 mm |  | 13 mm |  | 14 mm |  |  | 13 mm |  |  | 13 mm | 14 mm |  | zone of inhibition at 500 µg/mL (Aspergillus flavus [1]): 13 mm; zone of inhibition at 750 µg/mL (Aspergillus flavus [14]): 13 mm; zone of inhibition at 1000 µg/mL (Aspergillus flavus [15]): 14 mm; zone of inhibition at 1000 µg/mL (Aspergillus oryzae [25]): 14 mm
6 | N#Cc1c(N)c2c(N)c3c(nc2oc1=O)OC(c1ccccc1)=CC3c1c(-c2ccccc2)[nH]c2ccc(Cl)cc12 (centres undefined) | 5 mm | 8 mm | 13 mm | 12 mm | 10 mm | 10 mm | 14 mm | 9 mm | 5 mm | 12 mm | 5 mm | 3 mm | 5 mm | 8 mm | 9 mm | 10 mm | 9 mm | 3 mm | 3 mm | 13 mm | zone of inhibition at 500 µg/mL (Aspergillus flavus [1]): 5 mm; zone of inhibition at 750 µg/mL (Aspergillus flavus [14]): 3 mm; Activity [24]: Active; zone of inhibition at 1000 µg/mL (Aspergillus oryzae [25]): 13 mm
7 | N#CC1=C(N)OC(c2ccc(Cl)cc2)=CC1c1c(-c2ccccc2)[nH]c2ccccc12 (centres undefined) | 2 mm | 3 mm | 10 mm | 9 mm | 5 mm | 5 mm | 10 mm | 8 mm | 2 mm | 9 mm | 2 mm | 13 mm | 8 mm | 8 mm | 6 mm | 5 mm | 10 mm | 12 mm | 13 mm | 10 mm | zone of inhibition at 1000 µg/mL (Aspergillus flavus [15]): 2 mm; Activity [24]: Active; zone of inhibition at 1000 µg/mL (Aspergillus oryzae [25]): 3 mm
